Data as given in ChEMBL document CHEMBL1147150, “Design and synthesis of a potent histone deacetylase inhibitor” (J Med Chem, 2007).
Square brackets hold non-standard residues; d marks the D form. Peptide text beside a SMILES is read from it. * marks the point of attachment. Asu = N[C@@H](CCCCCC(=O)O)C(=O)O; NHOH = ON*

Columns and labels:
Histone deacetylase = assay: Inhibition of Histone deacetylase in HeLa cell nuclear extracts by fluorescence-based assay; design: species or system Homo sapiens
Histone deacetylase 1 = Histone deacetylase 1 (Homo sapiens, UniProt Q13547); assay: Inhibition of human HDAC1
Histone deacetylase 1, sequence (Q13547 whole entry): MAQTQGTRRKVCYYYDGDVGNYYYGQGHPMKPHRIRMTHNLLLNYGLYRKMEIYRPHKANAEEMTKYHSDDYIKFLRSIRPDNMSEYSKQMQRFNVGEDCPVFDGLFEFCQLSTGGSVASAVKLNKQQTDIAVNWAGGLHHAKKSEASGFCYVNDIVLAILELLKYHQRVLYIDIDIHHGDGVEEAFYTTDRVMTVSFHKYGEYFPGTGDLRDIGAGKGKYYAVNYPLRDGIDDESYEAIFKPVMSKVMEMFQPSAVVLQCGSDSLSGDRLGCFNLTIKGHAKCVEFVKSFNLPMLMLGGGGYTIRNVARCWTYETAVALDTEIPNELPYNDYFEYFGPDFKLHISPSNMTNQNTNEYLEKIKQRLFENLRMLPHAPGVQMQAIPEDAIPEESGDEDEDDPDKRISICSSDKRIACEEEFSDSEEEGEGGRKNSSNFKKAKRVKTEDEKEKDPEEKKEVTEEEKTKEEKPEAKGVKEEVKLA

Histone deacetylase 8 = target: T1, Histone deacetylase 8 (Homo sapiens, UniProt Q9BY41); assay: Inhibition of human HDAC8
T1 sequence (Q9BY41 whole entry): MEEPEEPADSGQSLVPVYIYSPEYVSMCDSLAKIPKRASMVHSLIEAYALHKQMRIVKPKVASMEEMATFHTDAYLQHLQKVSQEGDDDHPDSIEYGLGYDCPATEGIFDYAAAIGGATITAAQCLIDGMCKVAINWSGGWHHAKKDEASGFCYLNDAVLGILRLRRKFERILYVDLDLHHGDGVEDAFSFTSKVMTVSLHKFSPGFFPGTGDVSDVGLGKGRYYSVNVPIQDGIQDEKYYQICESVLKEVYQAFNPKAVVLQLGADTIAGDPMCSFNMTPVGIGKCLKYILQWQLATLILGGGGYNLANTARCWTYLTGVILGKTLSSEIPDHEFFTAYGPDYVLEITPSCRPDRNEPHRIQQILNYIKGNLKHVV

Row | SMILES | IC50 (Histone deacetylase) | IC50 (Histone deacetylase 1) | Ki (Histone deacetylase) | Ki (Histone deacetylase 1) | IC50 (Histone deacetylase 8) | Ki (Histone deacetylase 8)
1 | COC(=O)C(Cc1cccc(C[C@H](NC(C)=O)C(=O)O)c1)NC(=O)[C@@H](N)CCCCCC(=O)NO (stereo not given in full) | 8100 nM | 40000 nM |  |  |  | 
2 | COC(=O)[C@@H]1Cc2cccc(c2)C[C@H](NC(C)=O)C(=O)N[C@@H](CCCCCC(=O)NO)C(=O)N1 | 46 nM | 57 nM | 13.67 nM | 4.15 nM | 231 nM | 5.32 nM
3 | COC(=O)[C@H](Cc1ccccc1)NC(=O)[C@H](CCCCCC(=O)NO)NC(=O)[C@H](C)NC(C)=O (Ac-Ala-[Asu](NHOH)-Phe-OMe) | 167 nM | 174 nM |  |  |  | 
